# According to ChEMBL document CHEMBL2029205 (Bioorg Med Chem Lett, 2012):
# System: not listed separately
# Test: in vitro
# Conditions: mouse, Melan-a cells
# Description: Ratio of IC50 for cytotoxicity against mouse Melan-a cells to IC50 for depigmentation in mouse Melan-a cells
row,SMILES,selectivity ratio
1,COc1ccc(C(=O)OCc2cc(=O)c(O)co2)cc1C12CC3CC(CC(C3)C1)C2,5.55
2,O=C(OCc1cc(=O)c(O)co1)c1ccc(O)c(C23CC4CC(CC(C4)C2)C3)c1,7.25
3,O=C(OCc1cc(=O)c(O)co1)c1cc(C23CC4CC(CC(C4)C2)C3)c(O)cc1O,3.41
4,COc1cc(O)c(C(=O)OCc2cc(=O)c(O)co2)cc1C12CC3CC(CC(C3)C1)C2,3
5,COc1cc(OC)c(C23CC4CC(CC(C4)C2)C3)cc1C(=O)OCc1cc(=O)c(O)co1,4.39
6,COc1ccc(C(=O)OCc2cc(=O)c(OC)co2)cc1C12CC3CC(CC(C3)C1)C2,6.54
7,COc1coc(COC(=O)c2ccc(O)c(C34CC5CC(CC(C5)C3)C4)c2)cc1=O,6.16
8,Oc1ccc(O)cc1 [HYDROQUINONE],3.56

# Biological target: T1, Tyrosinase (Agaricus bisporus, UniProt O42713)
# T1 sequence (O42713 whole entry): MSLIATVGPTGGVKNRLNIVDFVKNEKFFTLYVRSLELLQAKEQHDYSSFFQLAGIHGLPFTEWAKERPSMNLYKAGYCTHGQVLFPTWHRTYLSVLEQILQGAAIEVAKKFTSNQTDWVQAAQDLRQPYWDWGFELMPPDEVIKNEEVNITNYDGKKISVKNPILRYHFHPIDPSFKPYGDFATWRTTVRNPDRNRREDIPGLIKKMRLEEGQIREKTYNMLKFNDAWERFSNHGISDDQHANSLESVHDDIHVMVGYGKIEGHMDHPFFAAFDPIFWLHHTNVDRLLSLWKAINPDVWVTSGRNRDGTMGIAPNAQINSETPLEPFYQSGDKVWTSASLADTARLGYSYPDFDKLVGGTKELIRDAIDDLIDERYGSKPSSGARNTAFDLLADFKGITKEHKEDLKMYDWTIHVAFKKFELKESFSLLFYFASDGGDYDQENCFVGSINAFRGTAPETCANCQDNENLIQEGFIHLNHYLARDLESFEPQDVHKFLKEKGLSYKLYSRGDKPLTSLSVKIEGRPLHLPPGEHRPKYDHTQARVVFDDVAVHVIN
# Test: Inhibition of mushroom tyrosinase using L-DOPA as substrate after 20 mins by spectrophotometry
# Conditions: not given
row,SMILES,IC50 [µM]
1,O=C(OCc1cc(=O)c(O)co1)c1ccc(O)cc1,1.8
2,COc1ccc(C(=O)OCc2cc(=O)c(O)co2)cc1,2.05
3,O=C(OCc1cc(=O)c(O)co1)c1ccc(O)cc1O,3.61
4,COc1ccc(C(=O)OCc2cc(=O)c(O)co2)c(O)c1,20.1
5,COc1ccc(C(=O)OCc2cc(=O)c(O)co2)c(OC)c1,4.8
6,O=C(OCc1cc(=O)c(O)co1)c1ccc(O)c(C23CC4CC(CC(C4)C2)C3)c1,> 200
7,O=C(OCc1cc(=O)c(O)co1)c1cc(C23CC4CC(CC(C4)C2)C3)c(O)cc1O,> 200

# Results, then the molecule that gave them:
row,IC50 [µM],SMILES
1,> 200,COc1ccc(C(=O)OCc2cc(=O)c(O)co2)cc1C12CC3CC(CC(C3)C1)C2
2,> 200,COc1cc(O)c(C(=O)OCc2cc(=O)c(O)co2)cc1C12CC3CC(CC(C3)C1)C2
3,> 200,COc1cc(OC)c(C23CC4CC(CC(C4)C2)C3)cc1C(=O)OCc1cc(=O)c(O)co1

# System: not listed separately
# Test: cells
# Conditions: Mus musculus, Melan-a, 96 h
# Description: Cytotoxicity against mouse Melan-a cells after 4 days by crystal voilet method
row,SMILES,IC50 [µM]
1,O=C(OCc1cc(=O)c(O)co1)c1ccc(O)cc1,> 80
2,COc1ccc(C(=O)OCc2cc(=O)c(O)co2)cc1,> 80
3,O=C(OCc1cc(=O)c(O)co1)c1ccc(O)cc1O,> 80
4,COc1ccc(C(=O)OCc2cc(=O)c(O)co2)c(O)c1,> 80
5,COc1ccc(C(=O)OCc2cc(=O)c(O)co2)c(OC)c1,> 80
6,O=C(OCc1cc(=O)c(O)co1)c1ccc(O)c(C23CC4CC(CC(C4)C2)C3)c1,27.6
7,O=C(OCc1cc(=O)c(O)co1)c1cc(C23CC4CC(CC(C4)C2)C3)c(O)cc1O,27.4
8,COc1ccc(C(=O)OCc2cc(=O)c(OC)co2)cc1C12CC3CC(CC(C3)C1)C2,31.3

# Second part, the molecule after the results:
row,IC50 [µM],SMILES
1,19,COc1ccc(C(=O)OCc2cc(=O)c(O)co2)cc1C12CC3CC(CC(C3)C1)C2
2,26.8,COc1cc(O)c(C(=O)OCc2cc(=O)c(O)co2)cc1C12CC3CC(CC(C3)C1)C2
3,17.6,COc1cc(OC)c(C23CC4CC(CC(C4)C2)C3)cc1C(=O)OCc1cc(=O)c(O)co1
4,23.8,COc1coc(COC(=O)c2ccc(O)c(C34CC5CC(CC(C5)C3)C4)c2)cc1=O
5,15,Oc1ccc(O)cc1 [HYDROQUINONE]

# Biological target: T1, Tyrosinase
# Test: not given
# Conditions: not given
row,SMILES,IC50 [µM]
1,O=C(OCc1cc(=O)c(O)co1)c1ccc(O)cc1,2.8
2,COc1ccc(C(=O)OCc2cc(=O)c(O)co2)cc1,2.03
3,O=C(OCc1cc(=O)c(O)co1)c1ccc(O)cc1O,3.51
4,COc1ccc(C(=O)OCc2cc(=O)c(O)co2)c(O)c1,10.6
5,COc1ccc(C(=O)OCc2cc(=O)c(O)co2)c(OC)c1,3.23
6,O=C(OCc1cc(=O)c(O)co1)c1ccc(O)c(C23CC4CC(CC(C4)C2)C3)c1,> 200
7,O=C(OCc1cc(=O)c(O)co1)c1cc(C23CC4CC(CC(C4)C2)C3)c(O)cc1O,> 200

# Results, then the molecule that gave them:
row,IC50 [µM],SMILES
1,> 200,COc1ccc(C(=O)OCc2cc(=O)c(O)co2)cc1C12CC3CC(CC(C3)C1)C2
2,> 200,COc1cc(O)c(C(=O)OCc2cc(=O)c(O)co2)cc1C12CC3CC(CC(C3)C1)C2
3,> 200,COc1cc(OC)c(C23CC4CC(CC(C4)C2)C3)cc1C(=O)OCc1cc(=O)c(O)co1
4,10,Oc1ccc(O)cc1 [HYDROQUINONE]
